Values quoted from earlier work in patent US20090220426A1, “Biodegradable Inverted-Opal Structure, Method for Manufacturing and Using the Same, and Medical Implant Comprising the Biodegradable Inverted-Opal Structure” (KINKI UNIVERSITY, priority 2006, published 2009).

System: mouse

| Structure (SMILES) | L.D.50 (oral mouse) |
| --- | --- |
| OCCCCCO [1,5-pentanediol] | 25,500 mg/kg |
| OCC(CO)(CO)CO [pentaerythritol] | 25,500 mg/kg |
